Assays:
[1] = due to PAF-related structure; cited from earlier work
Sarcoma 180 cells [2] = assay: Antitumor action, Sarcoma 180 subcutaneous in ICR mice, intravenous dosing, tumor proliferation inhibition (Test Example 2); format: in vivo; conditions: 0.3 mg/mouse i.v. 9 times; tumor weight after 21 days
Experimental: (§1) Antitumor action of the compound of Working Example 8
ICR mice (a group consisting of 5 mice) were inoculated subcutaneously with 1×10^6 Sarcoma 180 cells per mouse, and given intravenously 0.03 mg/mouse or 0.3 mg/mouse of the compound of Working Example 8 dissolved in physiological saline 9 times in total, i.e. 8, 9, 10, 13, 14, 15, 16, 17, and 20 days after inoculation. The Reference compound (IV), 0.3 mg/mouse, was given under the same conditions. After 21 days, the tumor tissue was extirpated and the tumor weight was weighed. Shown in Table 2 is tumor proliferation inhibition ratio as compared with the untreated control group.

[3] = tested on: mouse mammary carcinoma cells MM46; assay: Antitumor action, MM46 intraperitoneal in C3H mice, life-span and survivors on 40th day (Test Example 3); format: in vivo; conditions: 0.25 mg/mouse once a day for 4 days
Experimental: as §1
C3H mice (a group consisting of 5 mice) were inoculated intraperitoneally with 1×10^4 mouse mammary carcinoma cells MM46 per mouse, and given 0.25 mg/mouse of the compound of Working Example 8 dissolved in physiological saline once a day for 4 consecutive days starting from the second day after the inoculation. The Reference compound (IV) was given under the same conditions. Shown in Table 3 are the life-span prolongation ratio against the untreated control group and the number of survived mice on the 40th day after initiation of the test.

Sarcoma 180 cells [4] = assay: Antitumor action, Sarcoma 180 intraperitoneal in ICR mice, life-span and survivors on 40th day (Test Example 1); format: in vivo; conditions: 0.33 mg/mouse i.p. three times
Experimental: Antitumor action of the compounds in Working Examples
ICR mice (a group consisting of five mice) were inoculated intraperitoneally with 1×10^5 Sarcoma 180 cells per mouse, and then given intraperitoneally 0.33 mg/mouse of a compound dissolved in physiological saline, three times, i.e. 1 hour, 1 day and 2 days after inoculation. Reference compound IV, Va or Vb was given to mice under the same conditions. Shown in Table 1 are the life-span prolongation ratio against the untreated control group and the number of survived mice on the 40th day after the initiation of the test.

[5] = unlike PAF; cited from earlier work
[6] = tested on: Platelet aggregation caused by PAF; assay: Inhibition of PAF-induced platelet aggregation in rabbit PRP (Test Example 5); format: cell-based; conditions: Oryctolagus cuniculus, PAF 1×10^-8 M, read-out: inhibition ratio (%) of PAF-induced platelet aggregation
Experimental: Blood was collected directly from a male rabbit, using a syringe containing 3.15% of citric acid (at a ratio of 1 part to 9 parts of blood) as an anticoagulant, and centrifuged at 800 rpm for 10 minutes at room temperature to obtain platelet rich plasma (PRP). The remaining blood was centrifuged further at 3000 rpm for 10 minutes to obtain platelet poor plasma (PPP) as the supernatant. By dilution of PRP with PPP, the platelet count was adjusted to about 500,000 cells/μl. After 250 μl of the resulting PRP was stirred at 37° C. for 2 minutes, a certain amount of the test compound was added, and the mixture was stirred for further 2 minutes, and then 1×10^-8 M of PAF was added. Platelet aggregation was measured by using a platelet aggregometer (manufactured by Rika Denki Co. in Japan). The aggregation-inhibiting activity of a test compound was determined from the inhibition ratio against maximal transmittance (maximal aggregation ratio) caused by PAF in the control PRP.

CCCCCCCCCCCCCCCCCCOCC(COP(=O)([O-])OCC[N+](C)(C)C)OC (stereo not shown) [Compound IV, reference compound]
PAF-like actions [1]: serotonin liberation, bronchial constriction, platelet aggregation, and blood pressure lowering
Inhibition ratio (1-T/C) (%) (Sarcoma 180 cells [2]): 58%
No. of survivors/No. of mice tested [3]: 0/5
Life-span prolongation ratio (T/C, %) ([3]; survivors not included): 155%
No. of survivors/No. of mice tested (Sarcoma 180 cells [4]): 0/5
Life-span prolongation ratio (T/C, %) (Sarcoma 180 cells [4]; only related to mice found dead): 162%
antitumor actions [5]: antitumor actions
inhibition at 30 µM ([6]; 3 × 10^-5 M): 0%
inhibition at 3 µM ([6]; 3 × 10^-6 M): 0%
inhibition at 0.3 µM ([6]; 3 × 10^-7 M): 0%

— patent US4889953A, “Glycerol derivatives, their production and use” (Takeda Chemical Industries, Ltd., priority 1986, dated 1989)
